Measured values taken from patent publication US20230218654A1, “COMPOSITIONS AND METHODS FOR TREATING HYPERGLYCEMIA IN TYPE-2 DIABETES” (The Board of Regents of the university of Oklahoma, priority 2020, published 2023).
“Also recorded” adds a separate entry of the source.

Tests used:
[1] = system: male C57BL/6J mice fed C or WD; experiment: Intervention study: MLN4924 initiated after 8 weeks of WD feeding; assay type: in vivo
Method: MLN4924 (60 mg/kg, SQ) was given every other day for the last 8 weeks of the 16-week feeding. For both cohorts, body weight was measured weekly. Results are mean ±SEM. n=5-7. “*”, vs C+Veh; “#”, vs. WD+Veh, p<0.05. ns= Not significant.
Male C57BL/6J mice were fed chow or WD for 16 weeks. Vehicle or MLN4924 treatment (60 mg/kg, SQ, once every two days) was initiated after 8 weeks of WD feeding. Analyses were performed after 16 weeks of feeding. Results are mean ± SEM. n=5-8. “*”, vs C+Veh; “#”, vs. WD+Veh, p<0.05. Normalized densitometry was shown in low panel bar graphs.
Male C57BL/6J mice were purchased from the Jackson Laboratory (Bar Harbor, ME). Mice were fed a regular chow (C) diet or a Western diet (WD) that contains 42% fat calories and 0.2% cholesterol content (TD. 88137, Envigo Inc. Indianapolis, IN).
MLN4924 and TAS4464 were purchased from MedChemExpress (MCE, Monmouth Junction, NJ). For cell treatment, MLN4924 and TAS4464 were dissolved in DMSO. Cells were serum starved overnight and then treated with MLN4924, TAS4464 and/or insulin as indicated. For injection in mice, MLN4924 and TAS4464 were first dissolved in DMSO, which was further suspended in 10% (2-hydroxypropyl)-β-cyclodextrin (Sigma, St. Louis, MO). The final solution contains 1% DMSO. The subcutaneous injection volume is 200 µl/mouse.
Lipids were extracted in a mixture of chloroform: methanol (2:1; v: v), dried under nitrogen, and resuspended in isopropanol containing 1% triton X-100. Total cholesterol, free cholesterol and TG were measured with assay kits following the manufacturer’s instruction. Total cholesterol assay kit and TG assay kit were purchased from Pointe Scientific (Canton, MI).
(§1) Aspartate aminotransferase (AST) and alanine aminotransferase (ALT) assay kits were purchased from Pointe Scientific (Canton, MI). Free fatty acid assay kit was purchased from Biovision Inc. (Milpitas, CA). Insulin ELISA kit was purchased from Crystal Chem Inc. (Elk Grove Village, IL).
Next investigated was the glucose lowering effect of CRL inhibition in mice rendered obese and insulin resistant by 16-weeks of WD feeding. […] Next conducted was an intervention study in which MLN4924 treatment was initiated after mice were fed WD for 8 weeks that rendered mice obese and insulin resistant. […] In summary, robust evidence is provided herein that pharmacological CRL inhibition is an effective approach to lowering hyperglycemia.

male C57BL6/J mice = experiment: Plasma/serum insulin and c-peptide after acute neddylation inhibitor treatment; assay type: in vivo
Method: Male C57BL6/J mice on chow diet were treated with 45 mg/kg TAS4464 via subcutaneous injection at 9 am. Mice were then fasted for 6 hours and serum insulin was measured. Blood samples were collected at 0 min and 120 min and used for insulin measurement (n=4). Left-hand bars are controls. Right-hand bars are TAS4464 treatments.
Male C57BL6/J mice on Western diet were treated with 15 mg/kg TAS4464 via subcutaneous injection at 9 am. Mice were then fasted for 6 hours and serum c-peptide were measured (n=5).
Male C57BL6/J mice on chow diet were treated with 60 mg/kg MLN4924 via subcutaneous injection at 9 am. Mice were then fasted for 6 hours and serum c-peptide were measured (n=8)
as §1
(§2) A hyperinsulinemic-euglycemic clamp study was conducted in which obese mice were treated with vehicle or MLN4924.

[2] = system: primary mouse hepatocytes; experiment: Western blot of insulin signaling in primary mouse hepatocytes; assay type: cell-based; conditions: 500 nM, 1 h
Method: MLN4924 enhances hepatocyte insulin responsiveness by delaying feedback IRS degradation (related to FIG. 18A). Cells were serum starved for 16 h then pre-treated with 500 nM MLN4924 for 1 h followed by 100 nM insulin stimulation in time course. Blots are representative of 2 independent experiments.
AML12 cells were a generous gift from Dr. Yanqiao Zhang (Northeast Ohio Medical University). AML12 cells were cultured in DMEM medium supplemented with a mixture of insulin-transferrin-selenium (#41400-045, ThermoFisher, Waltham, MA). For experiments, cells were cultured in serum free medium overnight before various treatments were initiated. The siGENOME SMARTpool siRNA and siControl were purchased from Dharmacon, Inc. (Lafayette, CO). The siRNA was transfected with Lipofectamine RNAiMAX reagent in a final concentration of 25 nM recommended by the manufacturer. Primary human hepatocytes and primary mouse hepatocytes were obtained from the Cell Isolation Core at the University of Kansas Medical Center. Treatments were initiated on the same day of isolation and completed within 24 hours.

obese mice = experiment: Hyperinsulinemic-euglycemic clamp study; assay type: in vivo
Method: as §2

male C57BL/6J mice = experiment: Pyruvate tolerance test (PTT); assay type: in vivo; conditions: 60 mg/kg SQ twice; for blood glucose excursion / hepatic glucose production in PTT: 6 h fast, 60 mg/kg
Method: On the day of testing, mice were fasted for 6 h (from 9am to 3 pm). Mice were then given 2 g/kg sodium pyruvate via IP injection. Blood glucose was measured with an UltraTouch glucometer in time course over a 120-minute period.
Mice were treated with 2 doses of MLN4924 as described. After the second injection at 9 am, mice were fasted for 6 h from 9 am to 3 pm. Mice were injected intraperitoneally […] for PTT, and 0.5 U/kg insulin for ITT. Blood glucose was measured with a OneTouch Ultra glucose meter.

[3] = WD 16 weeks, 60 mg/kg SQ every other day for last 8 weeks

## NS(=O)(=O)OC[C@@H]1C[C@@H](n2ccc3c(N[C@H]4CCc5ccccc54)ncnc32)C[C@@H]1O [MLN4924, ((1S,2S,4R)-4-(4-((1S)-2,3-dihydro-1H-inden-1-ylamino)-7H-pyrrolo[2,3-d]pyrimidin-7-yl)-2-hydroxycyclopentyl) methyl sulfamate]
[1]; [3]
  blood glucose (6 h fast): normalized blood glucose
  hepatic steatosis as measured by liver TGs: lowered hepatic steatosis
  serum AST: decreased serum AST
[1]; WD 16 weeks, 60 mg/kg SQ once every two days after 8 weeks
  liver IRS protein abundance: increases liver IRS protein abundance
[1]; chronic WD-fed mice
  hepatic AKT phosphorylation: increased hepatic AKT phosphorylation
Male C57BL6/J mice; acute MLN4924 treatment
  plasma insulin: ~ 0.55 ng/ml
  serum c-peptide: ~ 1.1 ng/ml
Male C57BL6/J mice; chow diet, 60 mg/kg SQ at 9 am, 6 h fast
  serum c-peptide concentration: elevated serum c-peptide concentration
[2]; then 100 nM insulin
  IRS protein abundance: increased IRS protein abundance
  insulin-stimulated AKT activation: increased IRS protein abundance and insulin-stimulated AKT activation
[2]; then 100 nM insulin in time course
  insulin signaling desensitization: significantly delayed cellular insulin desensitization; also recorded: significantly delayed insulin signaling desensitization
Obese mice
  glucose infusion rate: ~ 30 mg/kg/min
  plasma insulin level during the clamp procedure: ~ 3.75 ng/ml
Male C57BL/6J mice; vs vehicle
  peak blood glucose at 30 minutes post pyruvate challenge: significantly lower
Male C57BL/6J mice; 4-week WD-fed mice
  blood glucose excursion / hepatic glucose production in PTT: significantly lower
Male C57BL/6J mice; 4-week chow-fed mice
  blood glucose excursion / hepatic glucose production in PTT: significantly lower; also recorded: significantly reduced hepatic glucose production
